Values joined by “and” are separate entries in the source; they are usually repeats but may differ in a detail not shown here. Equal entries are not always repeated.
Assays:
Assay in all cases: radiometric filter-binding kinase assay, Kinase HotSpot
NUAK1 (human) = NUAK1 (human) (UniProt O60285); conditions: compound 0.5 µM; ATP 10 µM
DYRK1A (human) = DYRK1A (human) (UniProt Q13627); conditions: compound 0.5 µM; ATP 10 µM
MARK1 (human) = MARK1 (human) (UniProt Q9P0L2); conditions: compound 0.5 µM; ATP 10 µM
CSNK1G2 (human) = CSNK1G2 (human) (UniProt P78368); conditions: compound 0.5 µM; ATP 10 µM
MAP2K2 (human) = MAP2K2 (human) (UniProt P36507); conditions: compound 0.5 µM; ATP 10 µM
MAP3K2 (human) = MAP3K2 (human) (UniProt Q9Y2U5); conditions: compound 0.5 µM; ATP 10 µM
STK25 (human) = STK25 (human) (UniProt O00506); conditions: compound 0.5 µM; ATP 10 µM
RPS6KA3 KD1 KD2 (human) = RPS6KA3 KD1 KD2 (human) (UniProt P51812); conditions: compound 0.5 µM; ATP 10 µM
CSNK2A2 (human) = CSNK2A2 (human) (UniProt P19784); conditions: compound 0.5 µM; ATP 10 µM
HIPK4 (human) = HIPK4 (human) (UniProt Q8NE63); conditions: compound 0.5 µM; ATP 10 µM
CDK4 CCND3 (human) = CDK4 CCND3 (human) (UniProt P30281+P11802); conditions: compound 0.5 µM
GSG2 (human) = GSG2 (human) (UniProt Q8TF76); conditions: compound 0.5 µM; ATP 10 µM
ABL2 (human) = ABL2 (human) (UniProt P42684); conditions: compound 0.5 µM; ATP 10 µM
MAP3K9 (human) = MAP3K9 (human) (UniProt P80192); conditions: compound 0.5 µM; ATP 10 µM
RET (human) = RET (human) (UniProt P07949); conditions: compound 0.5 µM; ATP 10 µM
CHUK (human) = CHUK (human) (UniProt O15111); conditions: compound 0.5 µM; ATP 10 µM
BTK (human) = BTK (human) (UniProt Q06187); conditions: compound 0.5 µM; ATP 10 µM
EPHA3 (human) = EPHA3 (human) (UniProt P29320); conditions: compound 0.5 µM; ATP 10 µM
EPHA2 (human) = EPHA2 (human) (UniProt P29317); conditions: compound 0.5 µM; ATP 10 µM
[1] = biological target: JAK1 JH1 catalytic (human) (UniProt P23458); conditions: compound 0.5 µM; ATP 10 µM
EPHA1 (human) = EPHA1 (human) (UniProt P21709); conditions: compound 0.5 µM; ATP 10 µM
CAMK1D (human) = CAMK1D (human) (UniProt Q8IU85); conditions: compound 0.5 µM; ATP 10 µM
MERTK (human) = MERTK (human) (UniProt Q12866); conditions: compound 0.5 µM; ATP 10 µM
TBK1 (human) = TBK1 (human) (UniProt Q9UHD2); conditions: compound 0.5 µM; ATP 10 µM
PRKD2 (human) = PRKD2 (human) (UniProt Q9BZL6); conditions: compound 0.5 µM; ATP 10 µM
TSSK1B (human) = TSSK1B (human) (UniProt Q9BXA7); conditions: compound 0.5 µM; ATP 10 µM
NUAK2 (human) = NUAK2 (human) (UniProt Q9H093); conditions: compound 0.5 µM; ATP 10 µM
DAPK1 (human) = DAPK1 (human) (UniProt P53355); conditions: compound 0.5 µM; ATP 10 µM
GSK3A (human) = GSK3A (human) (UniProt P49840); conditions: compound 0.5 µM; ATP 10 µM
SRPK2 (human) = SRPK2 (human) (UniProt P78362); conditions: compound 0.5 µM; ATP 10 µM
NTRK2 (human) = NTRK2 (human) (UniProt Q16620); conditions: compound 0.5 µM; ATP 10 µM
PRKG1 (human) = PRKG1 (human) (UniProt Q13976); conditions: compound 0.5 µM; ATP 10 µM
CAMK2B (human) = CAMK2B (human) (UniProt Q13554); conditions: compound 0.5 µM; ATP 10 µM
MAPK13 (human) = MAPK13 (human) (UniProt O15264); conditions: compound 0.5 µM; ATP 10 µM
FES (human) = FES (human) (UniProt P07332); conditions: compound 0.5 µM; ATP 10 µM
EPHA8 (human) = EPHA8 (human) (UniProt P29322); conditions: compound 0.5 µM; ATP 10 µM
EPHB2 (human) = EPHB2 (human) (UniProt P29323); conditions: compound 0.5 µM; ATP 10 µM
DDR2 (human) = DDR2 (human) (UniProt Q16832); conditions: compound 0.5 µM; ATP 10 µM
NEK7 (human) = NEK7 (human) (UniProt Q8TDX7); conditions: compound 0.5 µM; ATP 10 µM
IGF1R (human) = IGF1R (human) (UniProt P08069); conditions: compound 0.5 µM
PTK2B (human) = PTK2B (human) (UniProt Q14289); conditions: compound 0.5 µM; ATP 10 µM
NTRK3 (human) = NTRK3 (human) (UniProt Q16288); conditions: compound 0.5 µM; ATP 10 µM

Sequence of ABL2 (human) (P42684 whole entry, looked up): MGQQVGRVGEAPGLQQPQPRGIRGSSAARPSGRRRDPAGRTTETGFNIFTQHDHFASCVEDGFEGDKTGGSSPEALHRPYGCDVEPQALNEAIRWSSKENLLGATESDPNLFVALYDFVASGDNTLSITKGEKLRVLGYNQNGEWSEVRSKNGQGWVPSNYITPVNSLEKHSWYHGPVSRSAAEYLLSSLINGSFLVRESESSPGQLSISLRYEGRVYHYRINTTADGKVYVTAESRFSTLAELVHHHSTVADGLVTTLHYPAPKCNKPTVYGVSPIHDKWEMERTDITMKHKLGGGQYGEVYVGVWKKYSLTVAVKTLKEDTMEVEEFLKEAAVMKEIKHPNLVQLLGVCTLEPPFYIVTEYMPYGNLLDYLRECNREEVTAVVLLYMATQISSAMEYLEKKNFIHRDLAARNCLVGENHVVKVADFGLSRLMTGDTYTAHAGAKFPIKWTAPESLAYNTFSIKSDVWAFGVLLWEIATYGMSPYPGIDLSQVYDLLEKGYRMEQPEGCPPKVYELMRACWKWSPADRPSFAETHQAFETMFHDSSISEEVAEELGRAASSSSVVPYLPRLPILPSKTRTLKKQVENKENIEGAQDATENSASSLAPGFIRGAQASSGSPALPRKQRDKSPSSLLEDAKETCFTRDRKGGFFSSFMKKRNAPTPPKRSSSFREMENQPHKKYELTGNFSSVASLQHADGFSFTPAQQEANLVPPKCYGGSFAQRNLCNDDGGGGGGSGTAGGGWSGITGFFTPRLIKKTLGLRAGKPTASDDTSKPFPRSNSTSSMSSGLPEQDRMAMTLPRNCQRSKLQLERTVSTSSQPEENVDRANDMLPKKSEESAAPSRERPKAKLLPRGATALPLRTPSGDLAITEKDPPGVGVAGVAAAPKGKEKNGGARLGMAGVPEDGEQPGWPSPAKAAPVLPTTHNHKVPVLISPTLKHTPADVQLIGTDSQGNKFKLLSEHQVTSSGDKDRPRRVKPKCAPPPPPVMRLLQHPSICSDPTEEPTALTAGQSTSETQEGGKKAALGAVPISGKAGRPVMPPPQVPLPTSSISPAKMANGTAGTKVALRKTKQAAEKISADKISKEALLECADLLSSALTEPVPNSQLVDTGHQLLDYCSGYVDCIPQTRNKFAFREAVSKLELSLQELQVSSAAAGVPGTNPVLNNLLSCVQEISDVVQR
Sequence of CAMK1D (human) (Q8IU85 whole entry, looked up): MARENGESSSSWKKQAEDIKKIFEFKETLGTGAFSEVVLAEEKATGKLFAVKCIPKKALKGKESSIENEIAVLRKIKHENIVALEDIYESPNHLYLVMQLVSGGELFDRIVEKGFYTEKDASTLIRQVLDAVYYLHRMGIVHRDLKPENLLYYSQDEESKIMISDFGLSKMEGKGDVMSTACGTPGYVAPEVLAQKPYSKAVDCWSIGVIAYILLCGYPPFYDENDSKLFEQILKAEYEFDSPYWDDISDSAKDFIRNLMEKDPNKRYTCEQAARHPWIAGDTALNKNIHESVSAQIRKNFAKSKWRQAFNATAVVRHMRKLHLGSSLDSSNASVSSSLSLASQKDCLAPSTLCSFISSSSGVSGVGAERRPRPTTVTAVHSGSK
Sequence of NUAK1 (human) (O60285 whole entry, looked up): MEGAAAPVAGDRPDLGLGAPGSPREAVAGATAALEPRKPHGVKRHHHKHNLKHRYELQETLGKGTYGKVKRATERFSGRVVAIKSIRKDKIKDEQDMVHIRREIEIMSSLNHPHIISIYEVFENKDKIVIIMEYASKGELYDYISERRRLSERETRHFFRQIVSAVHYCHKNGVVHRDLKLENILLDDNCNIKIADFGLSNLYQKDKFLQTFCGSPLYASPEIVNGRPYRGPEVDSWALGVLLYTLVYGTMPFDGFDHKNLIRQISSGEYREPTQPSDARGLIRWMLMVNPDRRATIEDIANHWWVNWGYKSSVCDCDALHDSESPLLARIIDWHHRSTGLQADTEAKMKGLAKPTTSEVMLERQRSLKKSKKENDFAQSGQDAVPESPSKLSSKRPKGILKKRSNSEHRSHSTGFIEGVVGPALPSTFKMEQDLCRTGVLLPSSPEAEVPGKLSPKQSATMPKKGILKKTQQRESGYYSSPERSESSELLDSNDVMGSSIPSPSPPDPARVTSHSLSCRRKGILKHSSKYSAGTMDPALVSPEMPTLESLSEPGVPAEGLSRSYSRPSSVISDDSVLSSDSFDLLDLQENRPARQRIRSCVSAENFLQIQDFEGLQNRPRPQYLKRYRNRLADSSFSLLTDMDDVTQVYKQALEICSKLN
Sequence of EPHA2 (human) (P29317 whole entry, looked up): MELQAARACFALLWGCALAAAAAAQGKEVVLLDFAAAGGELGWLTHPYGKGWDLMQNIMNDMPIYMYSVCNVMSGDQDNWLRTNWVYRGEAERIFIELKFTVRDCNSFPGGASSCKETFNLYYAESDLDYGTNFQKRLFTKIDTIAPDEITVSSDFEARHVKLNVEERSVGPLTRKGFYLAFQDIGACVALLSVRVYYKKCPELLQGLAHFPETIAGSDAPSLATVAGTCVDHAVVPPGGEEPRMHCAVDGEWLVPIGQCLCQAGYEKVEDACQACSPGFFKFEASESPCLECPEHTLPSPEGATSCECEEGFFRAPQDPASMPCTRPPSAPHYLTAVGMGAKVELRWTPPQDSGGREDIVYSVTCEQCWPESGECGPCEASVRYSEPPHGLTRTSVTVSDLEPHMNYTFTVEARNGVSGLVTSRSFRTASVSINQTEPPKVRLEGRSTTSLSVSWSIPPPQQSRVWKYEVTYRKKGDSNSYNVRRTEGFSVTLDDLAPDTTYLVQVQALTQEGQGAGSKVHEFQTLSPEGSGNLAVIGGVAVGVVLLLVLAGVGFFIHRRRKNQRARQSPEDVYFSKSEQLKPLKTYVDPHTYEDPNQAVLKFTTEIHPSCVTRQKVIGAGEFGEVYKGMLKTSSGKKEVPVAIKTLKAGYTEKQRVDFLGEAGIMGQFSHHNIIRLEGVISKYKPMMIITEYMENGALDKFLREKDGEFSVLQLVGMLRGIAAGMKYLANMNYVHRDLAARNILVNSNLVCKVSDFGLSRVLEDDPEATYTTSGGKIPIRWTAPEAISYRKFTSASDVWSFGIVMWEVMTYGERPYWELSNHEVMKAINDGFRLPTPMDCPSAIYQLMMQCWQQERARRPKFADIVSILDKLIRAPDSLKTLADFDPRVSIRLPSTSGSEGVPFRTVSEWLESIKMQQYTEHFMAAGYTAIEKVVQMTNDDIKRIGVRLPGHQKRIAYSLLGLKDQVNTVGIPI
Sequence of HIPK4 (human) (Q8NE63 whole entry, looked up): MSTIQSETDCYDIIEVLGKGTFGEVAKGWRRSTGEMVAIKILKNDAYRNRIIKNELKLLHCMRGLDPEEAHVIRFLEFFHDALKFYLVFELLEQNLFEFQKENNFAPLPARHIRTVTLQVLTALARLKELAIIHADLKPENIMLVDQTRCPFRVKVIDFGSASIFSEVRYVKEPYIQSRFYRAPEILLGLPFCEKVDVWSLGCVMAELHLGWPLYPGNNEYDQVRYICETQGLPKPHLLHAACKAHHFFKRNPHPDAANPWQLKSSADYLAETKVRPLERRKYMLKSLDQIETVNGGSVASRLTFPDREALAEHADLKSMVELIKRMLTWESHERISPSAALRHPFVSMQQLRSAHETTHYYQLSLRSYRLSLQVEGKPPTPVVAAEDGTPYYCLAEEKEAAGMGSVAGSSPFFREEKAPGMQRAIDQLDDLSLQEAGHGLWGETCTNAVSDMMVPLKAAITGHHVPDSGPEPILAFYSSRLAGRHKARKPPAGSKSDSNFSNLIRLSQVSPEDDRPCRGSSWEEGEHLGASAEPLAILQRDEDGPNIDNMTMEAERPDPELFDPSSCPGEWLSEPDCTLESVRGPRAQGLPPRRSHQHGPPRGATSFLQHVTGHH
Sequence of CSNK2A2 (human) (P19784 whole entry, looked up): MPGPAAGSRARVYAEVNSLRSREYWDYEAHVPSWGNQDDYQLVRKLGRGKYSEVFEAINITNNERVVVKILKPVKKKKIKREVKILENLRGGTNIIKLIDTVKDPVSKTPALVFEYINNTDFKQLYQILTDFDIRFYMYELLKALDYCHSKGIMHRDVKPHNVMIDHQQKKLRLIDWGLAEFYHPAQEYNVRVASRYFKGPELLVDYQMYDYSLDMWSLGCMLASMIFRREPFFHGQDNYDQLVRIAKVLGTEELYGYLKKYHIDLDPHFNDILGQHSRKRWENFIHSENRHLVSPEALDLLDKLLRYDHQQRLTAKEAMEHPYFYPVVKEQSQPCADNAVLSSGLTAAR
Sequence of CAMK2B (human) (Q13554 whole entry, looked up): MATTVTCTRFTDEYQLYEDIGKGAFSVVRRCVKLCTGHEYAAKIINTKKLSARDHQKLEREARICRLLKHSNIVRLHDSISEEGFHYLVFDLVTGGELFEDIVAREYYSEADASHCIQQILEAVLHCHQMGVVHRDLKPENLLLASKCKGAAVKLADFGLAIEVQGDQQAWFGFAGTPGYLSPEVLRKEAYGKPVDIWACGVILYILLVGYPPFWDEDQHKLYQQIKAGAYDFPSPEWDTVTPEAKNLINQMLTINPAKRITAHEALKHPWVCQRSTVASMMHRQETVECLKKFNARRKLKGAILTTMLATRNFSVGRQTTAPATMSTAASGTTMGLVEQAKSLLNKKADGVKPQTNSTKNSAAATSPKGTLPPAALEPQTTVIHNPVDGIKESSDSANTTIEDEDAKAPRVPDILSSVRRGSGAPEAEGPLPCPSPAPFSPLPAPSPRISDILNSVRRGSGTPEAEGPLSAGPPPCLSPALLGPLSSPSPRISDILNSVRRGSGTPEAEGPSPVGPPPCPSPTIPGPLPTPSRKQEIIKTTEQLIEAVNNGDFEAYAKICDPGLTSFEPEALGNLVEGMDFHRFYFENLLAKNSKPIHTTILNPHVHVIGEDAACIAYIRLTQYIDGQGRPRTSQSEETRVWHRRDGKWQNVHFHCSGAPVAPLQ

Structure (SMILES): O=C(O)c1ccc2c3c1cccc3c(=O)n1c3ccccc3nc21
- residual activity (NUAK1 (human)): 41.3%
- residual activity (DYRK1A (human)): 55.5%
- residual activity (MARK1 (human)): 79.5%
- residual activity (CSNK1G2 (human)): 93.5%
- residual activity (MAP2K2 (human)): 105%
- residual activity (MAP3K2 (human)): 90.7%
- residual activity (STK25 (human)): 104%
- residual activity (RPS6KA3 KD1 KD2 (human)): 95.5%
- residual activity (CSNK2A2 (human)): 13.3%
- residual activity (HIPK4 (human)): 86.9%
- residual activity (CDK4 CCND3 (human); ATP 10 µM): 102%
- residual activity (GSG2 (human)): 90.9%
- residual activity (ABL2 (human)): 100%
- residual activity (MAP3K9 (human)): 64.4%
- residual activity (RET (human)): 96.8%
- residual activity (CHUK (human)): 114%
- residual activity (BTK (human)): 109%
- residual activity (EPHA3 (human)): 104%
- residual activity (EPHA2 (human)): 102%
- residual activity [1]: 98.4%
- residual activity (EPHA1 (human)): 95.3%
- residual activity (CAMK1D (human)): 100%
- residual activity (MERTK (human)): 77.7%
- residual activity (TBK1 (human)): 20.2%
- residual activity (PRKD2 (human)): 86.8%
- residual activity (TSSK1B (human)): 112%
- residual activity (NUAK2 (human)): 122%
- residual activity (DAPK1 (human)): 40.9%
- residual activity (GSK3A (human)): 87.3%
- residual activity (SRPK2 (human)): 89.3%
- residual activity (NTRK2 (human)): 98.4%
- residual activity (PRKG1 (human)): 94% and 95.1%
- residual activity (CAMK2B (human)): 92.6%
- residual activity (MAPK13 (human)): 104%
- residual activity (FES (human)): 98.2%
- residual activity (EPHA8 (human)): 89.4%
- residual activity (EPHB2 (human)): 104%
- residual activity (DDR2 (human)): 96.8%
- residual activity (NEK7 (human)): 105%
- residual activity (IGF1R (human); ATP 10 µM): 100%
- residual activity (PTK2B (human)): 69.2%
- residual activity (NTRK3 (human)): 67.1%

Structure (SMILES): COc1cc2c(cc1OC)-c1[nH]nc(Nc3cccc(F)c3)c1C2
- residual activity (NUAK1 (human)): 88.5%
- residual activity (DYRK1A (human)): 90.3%
- residual activity (MARK1 (human)): 96.1%
- residual activity (CSNK1G2 (human)): 89.7%
- residual activity (MAP2K2 (human)): 99.8%
- residual activity (MAP3K2 (human)): 84.5%
- residual activity (STK25 (human)): 103%
- residual activity (RPS6KA3 KD1 KD2 (human)): 94.7%
- residual activity (CSNK2A2 (human)): 105%
- residual activity (HIPK4 (human)): 90%
- residual activity (CDK4 CCND3 (human); ATP 10 µM): 95.4%
- residual activity (GSG2 (human)): 84.8%
- residual activity (ABL2 (human)): 21.4%
- residual activity (MAP3K9 (human)): 90%
- residual activity (RET (human)): 83.6%
- residual activity (CHUK (human)): 91.4%
- residual activity (BTK (human)): 40.8%
- residual activity (EPHA3 (human)): 94.5%
- residual activity (EPHA2 (human)): 93.8%
- residual activity [1]: 97.6%
- residual activity (EPHA1 (human)): 102%
- residual activity (CAMK1D (human)): 89.8%
- residual activity (MERTK (human)): 78.7%
- residual activity (TBK1 (human)): 101%
- residual activity (PRKD2 (human)): 96.3%
- residual activity (TSSK1B (human)): 71.7%
- residual activity (NUAK2 (human)): 94.6%
- residual activity (DAPK1 (human)): 90.7%
- residual activity (GSK3A (human)): 101%
- residual activity (SRPK2 (human)): 87.8%
- residual activity (NTRK2 (human)): 102%
- residual activity (PRKG1 (human)): 104% and 95.2%
- residual activity (CAMK2B (human)): 101%
- residual activity (MAPK13 (human)): 99.7%
- residual activity (FES (human)): 95.6%
- residual activity (EPHA8 (human)): 94.2%
- residual activity (EPHB2 (human)): 94.8%
- residual activity (DDR2 (human)): 110%
- residual activity (NEK7 (human)): 100%
- residual activity (IGF1R (human); ATP 10 µM): 93.9%
- residual activity (PTK2B (human)): 98%
- residual activity (NTRK3 (human)): 72.6%

Structure (SMILES): O=c1[nH]c2ccccc2n1C1CCN(Cc2ccc(-c3nc4cc5[nH]cnc5cc4nc3-c3ccccc3)cc2)CC1
- residual activity (NUAK1 (human)): 103%
- residual activity (DYRK1A (human)): 101%
- residual activity (MARK1 (human)): 104%
- residual activity (CSNK1G2 (human)): 101%
- residual activity (MAP2K2 (human)): 86.6%
- residual activity (MAP3K2 (human)): 92.4%
- residual activity (STK25 (human)): 89.8%
- residual activity (RPS6KA3 KD1 KD2 (human)): 96.6%
- residual activity (CSNK2A2 (human)): 101%
- residual activity (HIPK4 (human)): 99.3%
- residual activity (CDK4 CCND3 (human)): 99.7%
- residual activity (GSG2 (human)): 106%
- residual activity (ABL2 (human)): 96.8%
- residual activity (MAP3K9 (human)): 93.9%
- residual activity (RET (human)): 96.7%
- residual activity (CHUK (human)): 90.1%
- residual activity (BTK (human)): 98.4%
- residual activity (EPHA3 (human)): 71.9%
- residual activity (EPHA2 (human)): 103%
- residual activity [1]: 94.6%
- residual activity (EPHA1 (human)): 84.4%
- residual activity (CAMK1D (human)): 107%
- residual activity (MERTK (human)): 96.2%
- residual activity (TBK1 (human)): 92.7%
- residual activity (PRKD2 (human)): 109%
- residual activity (TSSK1B (human)): 96.5%
- residual activity (NUAK2 (human)): 90.4%
- residual activity (DAPK1 (human)): 82.9%
- residual activity (GSK3A (human)): 100%
- residual activity (SRPK2 (human)): 116%
- residual activity (NTRK2 (human)): 99.4%
- residual activity (PRKG1 (human)): 101% and 103%
- residual activity (CAMK2B (human)): 104%
- residual activity (MAPK13 (human)): 102%
- residual activity (FES (human)): 101%
- residual activity (EPHA8 (human)): 106%
- residual activity (EPHB2 (human)): 108%
- residual activity (DDR2 (human)): 99.2%
- residual activity (NEK7 (human)): 99.6%
- residual activity (IGF1R (human)): 91.2%
- residual activity (PTK2B (human)): 105%
- residual activity (NTRK3 (human)): 116%

Structure (SMILES): O=C1NC(=O)c2c1c1c3ccccc3[nH]c1c1[nH]c3cc(Br)ccc3c21
- residual activity (NUAK1 (human)): 14.3%
- residual activity (DYRK1A (human)): 84%
- residual activity (MARK1 (human)): 42%
- residual activity (CSNK1G2 (human)): 89.5%
- residual activity (MAP2K2 (human)): 105%
- residual activity (MAP3K2 (human)): 100%
- residual activity (STK25 (human)): 84.4%
- residual activity (RPS6KA3 KD1 KD2 (human)): 46.3%
- residual activity (CSNK2A2 (human)): 93.2%
- residual activity (HIPK4 (human)): 94.1%
- residual activity (CDK4 CCND3 (human); ATP 10 µM): 21.1%
- residual activity (GSG2 (human)): 72.9%
- residual activity (ABL2 (human)): 93.8%
- residual activity (MAP3K9 (human)): 7.57%
- residual activity (RET (human)): 80.1%
- residual activity (CHUK (human)): 81.5%
- residual activity (BTK (human)): 74.8%
- residual activity (EPHA3 (human)): 100%
- residual activity (EPHA2 (human)): 99.2%
- residual activity [1]: 110%
- residual activity (EPHA1 (human)): 98.1%
- residual activity (CAMK1D (human)): 92.2%
- residual activity (MERTK (human)): 69.1%
- residual activity (TBK1 (human)): 53.5%
- residual activity (PRKD2 (human)): 45.9%
- residual activity (TSSK1B (human)): 86.5%
- residual activity (NUAK2 (human)): 84.5%
- residual activity (DAPK1 (human)): 73.5%
- residual activity (GSK3A (human)): 33.9%
- residual activity (SRPK2 (human)): 96.2%
- residual activity (NTRK2 (human)): 68.1%
- residual activity (PRKG1 (human)): 76% and 90.7%
- residual activity (CAMK2B (human)): 80.3%
- residual activity (MAPK13 (human)): 99.1%
- residual activity (FES (human)): 88.1%
- residual activity (EPHA8 (human)): 102%
- residual activity (EPHB2 (human)): 99.5%
- residual activity (DDR2 (human)): 91.8%
- residual activity (NEK7 (human)): 96.8%
- residual activity (IGF1R (human); ATP 10 µM): 15%
- residual activity (PTK2B (human)): 79.5%
- residual activity (NTRK3 (human)): 28.8%

From the kinase profiling compilation of Christmann-Franck et al. (2016)
